Test results from patent US20240269139A1, “COMPOUNDS FOR TARGETED PROTEIN DEGRADATION OF KINASES” (DANA-FARBER CANCER INSTITUTE, INC., priority 2020, published 2024).
Read-outs that look alike come from different tables or passages of the source.

Assays:
Assay type in all cases: cell-based
[1] = molecular target: protein kinases (human kinome) (Homo sapiens, UniProt P12931); conditions: for logFC of SRC: Accession P12931; for logFC: SRC (P12931), direction down
[2] = molecular target: protein kinases (human kinome) (Homo sapiens, UniProt P21127)
protein kinases (human kinome) (Homo sapiens, UniProt P21127), sequence (P21127 whole entry): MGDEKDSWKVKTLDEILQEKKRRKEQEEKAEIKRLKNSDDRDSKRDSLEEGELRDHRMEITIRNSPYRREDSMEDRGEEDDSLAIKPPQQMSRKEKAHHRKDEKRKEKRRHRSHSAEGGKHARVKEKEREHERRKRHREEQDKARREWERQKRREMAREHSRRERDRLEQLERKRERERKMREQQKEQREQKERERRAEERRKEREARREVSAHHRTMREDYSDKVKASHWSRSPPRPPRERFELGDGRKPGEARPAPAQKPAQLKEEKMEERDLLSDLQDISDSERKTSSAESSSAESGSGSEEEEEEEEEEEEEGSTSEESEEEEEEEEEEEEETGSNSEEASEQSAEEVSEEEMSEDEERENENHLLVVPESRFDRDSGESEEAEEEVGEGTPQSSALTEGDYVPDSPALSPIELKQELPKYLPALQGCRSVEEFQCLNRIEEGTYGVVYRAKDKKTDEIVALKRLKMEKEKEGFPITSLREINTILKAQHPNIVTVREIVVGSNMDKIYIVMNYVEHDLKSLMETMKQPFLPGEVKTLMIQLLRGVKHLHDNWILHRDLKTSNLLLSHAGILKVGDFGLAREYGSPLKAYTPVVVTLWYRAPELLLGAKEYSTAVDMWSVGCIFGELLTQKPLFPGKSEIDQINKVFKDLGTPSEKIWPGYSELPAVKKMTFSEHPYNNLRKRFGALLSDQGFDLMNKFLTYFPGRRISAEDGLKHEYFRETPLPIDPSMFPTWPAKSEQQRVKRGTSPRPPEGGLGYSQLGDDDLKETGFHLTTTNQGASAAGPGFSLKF

[3] = molecular target: T1, protein kinases (human kinome) (Homo sapiens, UniProt Q9UBE8)
T1 sequence (Q9UBE8 1-527): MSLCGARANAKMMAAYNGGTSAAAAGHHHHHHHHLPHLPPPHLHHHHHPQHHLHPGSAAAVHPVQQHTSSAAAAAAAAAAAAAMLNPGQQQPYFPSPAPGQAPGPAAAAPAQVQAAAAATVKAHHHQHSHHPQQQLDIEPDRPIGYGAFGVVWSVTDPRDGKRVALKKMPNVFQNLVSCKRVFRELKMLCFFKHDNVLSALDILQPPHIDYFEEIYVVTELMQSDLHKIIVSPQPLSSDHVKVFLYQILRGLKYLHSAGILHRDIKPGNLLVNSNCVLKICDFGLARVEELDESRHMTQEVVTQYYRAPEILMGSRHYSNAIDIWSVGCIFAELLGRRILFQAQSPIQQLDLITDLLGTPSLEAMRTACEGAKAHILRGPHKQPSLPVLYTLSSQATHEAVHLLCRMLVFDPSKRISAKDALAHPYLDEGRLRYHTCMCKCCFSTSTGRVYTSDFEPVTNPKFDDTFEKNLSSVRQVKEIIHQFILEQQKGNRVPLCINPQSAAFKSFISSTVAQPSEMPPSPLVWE

[4] = molecular target: protein kinases (human kinome) (Homo sapiens, UniProt P06241); conditions: for logFC: FYN (P06241-1), direction down
protein kinases (human kinome) (Homo sapiens, UniProt P06241), sequence (P06241 whole entry): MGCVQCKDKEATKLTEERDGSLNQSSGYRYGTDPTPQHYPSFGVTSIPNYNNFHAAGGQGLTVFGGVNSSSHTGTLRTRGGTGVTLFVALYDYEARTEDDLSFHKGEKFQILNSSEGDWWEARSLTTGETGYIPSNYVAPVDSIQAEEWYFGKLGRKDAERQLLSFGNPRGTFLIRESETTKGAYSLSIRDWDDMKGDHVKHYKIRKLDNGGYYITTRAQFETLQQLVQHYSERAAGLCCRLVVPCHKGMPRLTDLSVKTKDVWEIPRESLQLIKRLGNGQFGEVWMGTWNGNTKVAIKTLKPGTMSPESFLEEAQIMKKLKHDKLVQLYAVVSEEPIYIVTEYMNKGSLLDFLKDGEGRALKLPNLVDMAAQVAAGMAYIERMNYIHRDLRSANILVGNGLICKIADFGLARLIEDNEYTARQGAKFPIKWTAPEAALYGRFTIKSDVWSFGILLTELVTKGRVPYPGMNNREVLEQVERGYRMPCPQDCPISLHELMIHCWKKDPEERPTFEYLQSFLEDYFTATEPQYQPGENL

[5] = molecular target: protein kinases (human kinome) (Homo sapiens, UniProt P49840); conditions: GSK3A P49840
protein kinases (human kinome) (Homo sapiens, UniProt P49840), sequence (P49840 whole entry): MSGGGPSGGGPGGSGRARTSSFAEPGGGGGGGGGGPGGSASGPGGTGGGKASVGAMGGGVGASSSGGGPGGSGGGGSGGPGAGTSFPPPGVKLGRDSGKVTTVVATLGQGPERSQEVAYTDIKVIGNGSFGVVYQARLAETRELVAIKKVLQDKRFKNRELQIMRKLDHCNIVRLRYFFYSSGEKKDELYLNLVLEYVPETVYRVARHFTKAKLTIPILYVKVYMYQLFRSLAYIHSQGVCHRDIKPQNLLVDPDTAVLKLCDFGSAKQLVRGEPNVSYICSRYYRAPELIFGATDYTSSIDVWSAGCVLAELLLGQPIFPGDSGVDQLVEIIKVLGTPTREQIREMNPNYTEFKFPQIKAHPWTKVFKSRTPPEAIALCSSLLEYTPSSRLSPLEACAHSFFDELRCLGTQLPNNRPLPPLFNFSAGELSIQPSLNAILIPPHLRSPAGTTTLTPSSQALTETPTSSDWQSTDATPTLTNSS

[6] = molecular target: T2, protein kinases (human kinome) (Homo sapiens, UniProt Q9NRH2); conditions: for logFC of SNRK (Q9NRH2): Experiment wp195; for logFC: SNRK (Q9NRH2), experiment wp195
T2 sequence (Q9NRH2 1-765): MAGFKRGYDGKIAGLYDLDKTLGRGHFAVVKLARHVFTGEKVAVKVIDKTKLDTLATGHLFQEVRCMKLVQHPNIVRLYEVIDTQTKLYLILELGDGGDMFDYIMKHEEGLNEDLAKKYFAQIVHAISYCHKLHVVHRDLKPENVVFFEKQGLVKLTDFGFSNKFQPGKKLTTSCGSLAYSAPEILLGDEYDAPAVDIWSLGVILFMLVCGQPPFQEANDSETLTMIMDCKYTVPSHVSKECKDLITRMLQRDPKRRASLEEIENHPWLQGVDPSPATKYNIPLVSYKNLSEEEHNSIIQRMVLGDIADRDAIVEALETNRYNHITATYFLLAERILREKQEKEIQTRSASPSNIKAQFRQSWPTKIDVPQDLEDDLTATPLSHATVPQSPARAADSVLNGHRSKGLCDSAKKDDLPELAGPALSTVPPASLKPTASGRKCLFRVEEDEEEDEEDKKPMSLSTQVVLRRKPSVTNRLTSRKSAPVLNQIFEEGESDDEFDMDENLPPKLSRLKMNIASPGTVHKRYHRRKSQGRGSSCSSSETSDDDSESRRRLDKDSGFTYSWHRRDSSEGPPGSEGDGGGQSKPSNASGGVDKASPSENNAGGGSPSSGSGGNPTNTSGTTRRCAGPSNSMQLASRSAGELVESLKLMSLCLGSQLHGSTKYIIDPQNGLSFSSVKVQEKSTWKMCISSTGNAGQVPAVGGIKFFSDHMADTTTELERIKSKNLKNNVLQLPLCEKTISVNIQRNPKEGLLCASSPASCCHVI

[7] = molecular target: protein kinases (human kinome) (Homo sapiens, UniProt Q9NSY1); conditions: BMP2K Q9NSY1
protein kinases (human kinome) (Homo sapiens, UniProt Q9NSY1), sequence (Q9NSY1 whole entry): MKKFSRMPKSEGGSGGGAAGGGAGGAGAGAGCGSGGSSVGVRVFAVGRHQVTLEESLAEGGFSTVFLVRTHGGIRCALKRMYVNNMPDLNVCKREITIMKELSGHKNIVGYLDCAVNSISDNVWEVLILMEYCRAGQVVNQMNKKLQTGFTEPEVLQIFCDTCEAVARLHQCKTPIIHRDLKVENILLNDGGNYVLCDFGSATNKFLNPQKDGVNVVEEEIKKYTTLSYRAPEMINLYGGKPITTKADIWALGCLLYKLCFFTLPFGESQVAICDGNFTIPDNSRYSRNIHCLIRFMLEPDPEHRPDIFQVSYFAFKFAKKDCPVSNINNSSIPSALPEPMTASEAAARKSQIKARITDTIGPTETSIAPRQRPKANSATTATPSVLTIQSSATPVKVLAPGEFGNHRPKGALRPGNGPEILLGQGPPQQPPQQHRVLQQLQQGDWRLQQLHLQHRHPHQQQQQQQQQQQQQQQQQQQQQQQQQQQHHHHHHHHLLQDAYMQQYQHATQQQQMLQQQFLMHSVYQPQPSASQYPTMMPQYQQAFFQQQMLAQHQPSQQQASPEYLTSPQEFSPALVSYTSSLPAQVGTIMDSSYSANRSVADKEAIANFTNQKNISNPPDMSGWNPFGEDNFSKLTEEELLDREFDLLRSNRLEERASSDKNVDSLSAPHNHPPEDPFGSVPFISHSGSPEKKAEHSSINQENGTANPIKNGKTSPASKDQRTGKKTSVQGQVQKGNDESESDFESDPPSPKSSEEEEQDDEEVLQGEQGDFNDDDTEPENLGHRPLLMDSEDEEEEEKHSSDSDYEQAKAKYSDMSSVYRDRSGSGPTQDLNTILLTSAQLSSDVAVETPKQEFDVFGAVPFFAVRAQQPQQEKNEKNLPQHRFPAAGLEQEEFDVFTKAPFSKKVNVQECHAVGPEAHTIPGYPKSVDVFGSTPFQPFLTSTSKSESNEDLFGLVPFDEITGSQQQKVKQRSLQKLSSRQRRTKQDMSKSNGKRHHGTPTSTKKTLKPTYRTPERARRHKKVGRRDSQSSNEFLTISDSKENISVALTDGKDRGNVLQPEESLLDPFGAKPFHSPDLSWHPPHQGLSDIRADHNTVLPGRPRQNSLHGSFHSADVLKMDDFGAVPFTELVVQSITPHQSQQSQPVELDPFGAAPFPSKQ

[8] = CDK11B P21127-1, experiment wp168
[9] = Accession P06241-1, experiment wp105
[10] = CDK11B P21127-1, experiment wp045
[11] = CDK11B P21127-1, experiment wp105
[12] = CDK11B P21127-1, experiment wp117
[13] = CDK11B P21127-1, experiment wp160, 4 hr
[14] = CDK11B P21127-1, experiment wp160, 8 hr
[15] = CDK11B P21127-1, experiment wp172
[16] = NLK (Q9UBE8), experiment wp137, direction down

protein kinases (human kinome) (Homo sapiens, UniProt P12931), sequence (P12931 whole entry): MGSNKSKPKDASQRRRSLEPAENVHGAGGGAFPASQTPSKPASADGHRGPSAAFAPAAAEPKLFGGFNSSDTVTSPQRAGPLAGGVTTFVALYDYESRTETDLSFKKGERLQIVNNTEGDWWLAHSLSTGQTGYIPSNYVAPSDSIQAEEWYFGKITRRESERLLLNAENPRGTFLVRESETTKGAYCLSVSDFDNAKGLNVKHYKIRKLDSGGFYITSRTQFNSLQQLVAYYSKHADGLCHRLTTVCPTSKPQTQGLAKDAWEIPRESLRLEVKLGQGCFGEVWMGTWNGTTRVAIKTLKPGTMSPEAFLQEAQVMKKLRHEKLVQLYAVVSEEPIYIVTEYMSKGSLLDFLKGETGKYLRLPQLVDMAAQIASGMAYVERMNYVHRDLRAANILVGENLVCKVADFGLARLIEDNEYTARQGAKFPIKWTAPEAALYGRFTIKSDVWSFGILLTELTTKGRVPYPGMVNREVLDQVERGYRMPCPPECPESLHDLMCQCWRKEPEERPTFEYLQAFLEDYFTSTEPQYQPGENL

For Cc1ccc(NC(=O)c2cccc(C(F)(F)F)c2)cc1N1Cc2cnc(Nc3ccc(N4CCN(CCCOc5cccc6c5C(=O)N(C5CCC(=O)NC5=O)C6=O)CC4)nc3)nc2N(C)C1=O (centres unmarked) [DB0662], the “logFC of SRC” value ([1]; experiment wp168) was −0.9018, the “logFC of SRC (P12931)” value ([1]; Experiment wp168) was −0.9018 and the logFC [2, 8] was −0.5946. For the same compound, the “logFC CDK11B” value [2, 8] was −0.5946.

In the case of Cc1ccc(NC(=O)c2cccc(C(F)(F)F)c2)cc1N1Cc2cnc(Nc3ccc(N4CCN(Cc5cn(CCCCCOc6cccc7c6C(=O)N(C6CCC(=O)NC6=O)C7=O)nn5)CC4)nc3)nc2N(C)C1=O (centres unmarked) [DB0646, N-(3-(7-((6-(4-((1-(5-((2-(2,6-Dioxopiperidin-3-yl)-1,3-dioxoisoindolin-4-yl)oxy)pentyl)-1H-1,2,3-triazol-4-yl)methyl)piperazin-1-v)pyridin-3-yl)amino)-1-methyl-2-oxo-1,4-dihydropyrimido[4,5-d]pyrimidin-3(2H)-yl)-4-methylphenyl)-3-(trifluoromethyl)benzamide], the logFC ([3]; NLK (Q9UBE8), experiment wp117, direction down) is reported as −0.501, the logFC ([3]; NLK (Q9UBE8), experiment wp160, 8 hr, direction down) is reported as −0.5569 and the logFC ([3]; NLK Q9UBE8, experiment wp117) is reported as −0.501. For the same compound, the logFC ([3]; NLK Q9UBE8, experiment wp160, 8 hr) was −0.5569, the “logFC of SRC” value ([1]; experiment wp152) was −0.3941 and the “logFC of SRC” value ([1]; experiment wp160, 4 hr) was −0.5186. The “logFC of SRC” value ([1]; experiment wp160, 8 hr) was −0.6833, the logFC ([1]; experiment wp152) was −0.3941 and the logFC ([1]; experiment wp160, 4 hr) was −0.5186. For the same compound, the logFC ([1]; experiment wp160, 8 hr) was −0.6833, the “logFC FYN” value [4, 9] was −0.4621 and the “logFC FYN” value ([4]; Accession P06241, experiment wp152) was −0.3685. For the same compound, the “logFC FYN (P06241)” value ([4]; Experiment wp152, direction of change down) was −0.3685, the logFC ([4]; experiment wp105) was −0.4621 and the logFC [2, 10] was −0.4555. For the same compound, the “logFC CDK11B” value [2, 10] was −0.4555, the logFC [2, 11] was −0.3542 and the “logFC CDK11B” value [2, 11] was −0.3542. The logFC [2, 12] was −0.4695, the “logFC CDK11B” value [2, 12] was −0.4695 and the logFC [2, 13] was −0.5122. For the same compound, the “logFC CDK11B” value [2, 13] was −0.5122, the logFC [2, 14] was −0.644 and the “logFC CDK11B” value [2, 14] was −0.644. The logFC [2, 15] was −0.4624, the “logFC CDK11B” value [2, 15] was −0.4624 and the logFC ([2]; CDK11B P21127, experiment wp152) was −0.5948. The “logFC of CDK11B (P21127)” value ([2]; experiment wp152) was −0.5948.

Nc1ncc(-c2ccc(S(=O)(=O)N(CCCNC(=O)CCOCCOCCOCCOCCOCCNc3cccc4c3C(=O)N(C3CCC(=O)NC3=O)C4=O)C3CC3)cc2)cc1-c1ccc2c(c1)CCNC2=O (centres unmarked) [WH.10417.099] was tested, and the logFC ([5]; experiment wp056) was −0.5169, the “logFC GSK3A” value ([5]; experiment wp056) was −0.5169 and the logFC ([5]; experiment wp103) was −0.443. For the same compound, the “logFC GSK3A” value ([5]; experiment wp103) was −0.443, the logFC ([5]; experiment wp105) was −0.4499 and the “logFC GSK3A” value ([5]; experiment wp105) was −0.4499. For the same compound, the logFC ([5]; experiment wp107) was −0.4697 and the “logFC GSK3A” value ([5]; experiment wp107) was −0.4697.

With Cc1cnc(Nc2ccc(N3CCN(CCCCCCC(=O)N[C@H](C(=O)N4C[C@H](O)C[C@H]4C(=O)N[C@@H](C)c4ccc(-c5scnc5C)cc4)C(C)(C)C)CC3)cc2)nc1Nc1cccc(S(=O)(=O)NC(C)(C)C)c1 [JWG.123] the “logFC of SNRK (Q9NRH2)” value [6] was −1.197 and the logFC [6] was −1.197.

In the case of CC(C)(C)c1nc(-c2cccc(NS(=O)(=O)c3c(F)cccc3F)c2F)c(-c2ccnc(NCCOCCNC(=O)CCOCCOCCNc3cccc4c3C(=O)N(C3CCC(=O)NC3=O)C4=O)n2)s1 (centres unmarked) [DD.03.106], the logFC [3, 16] is reported as −0.441.

Work on Cn1c(=O)c(-c2c(Cl)cccc2Cl)cc2cnc(Nc3ccc(OCCNC(=O)CCCCCCNC(=O)COc4cccc5c4C(=O)N(C4CCC(=O)NC4=O)C5=O)cc3)nc21 (centres unmarked) [SB1.G.192.1] yielded a logFC ([3]; NLK (Q9UBE8), experiment wp071, direction down) of −0.5578, a logFC ([3]; NLK (Q9UBE8), experiment wp081, direction down) of −0.4869 and a logFC ([3]; NLK (Q9UBE8), experiment wp131, direction down) of −0.5634. For the same compound, the logFC ([3]; NLK Q9UBE8, experiment wp071) was −0.5578, the logFC ([3]; NLK Q9UBE8, experiment wp081) was −0.4869 and the logFC ([3]; NLK Q9UBE8, experiment wp131) was −0.5634. For the same compound, the “logFC FYN” value ([4]; Accession P06241-1, experiment wp081) was −0.9314 and the logFC ([4]; experiment wp081) was −0.9314.

For Cc1ncsc1-c1ccc([C@H](C)NC(=O)[C@@H]2C[C@@H](O)CN2C(=O)[C@@H](NC(=O)CCCCCN2CCc3cc(Nc4ncc(C5CC5)c(NCCCNC(=O)C5CCC5)n4)ccc3C2)C(C)(C)C)cc1 [BSJ.05.026], the “logFC of SNRK (Q9NRH2)” value [6] was −1.856 and the logFC [6] was −1.856.

Cc1ccc(C(=O)Nc2ccc(CN3CCN(CCCOCCOCCOCCNC(=O)COc4cccc5c4C(=O)N(C4CCC(=O)NC4=O)C5=O)CC3)c(C(F)(F)F)c2)cc1C#Cc1cnc2cccnn12 (centres unmarked) [SB1.G.187] was tested, and the “logFC FYN” value [4, 9] was −0.7697, the “logFC FYN” value ([4]; Accession P06241-1, experiment wp107) was −0.3601 and the logFC ([4]; experiment wp105) was −0.7697. It also gave a logFC ([4]; experiment wp107) of −0.3601.

For CS(=O)(=O)Nc1cccc(-c2csc3cnc(Nc4ccc(N5CCN(CCCCCOc6cccc7c6C(=O)N(C6CCC(=O)NC6=O)C7=O)CC5)cc4)nc23)c1 (centres unmarked) [DB0614, N-(3-(2-((4-(4-(5-((2-(2,6-Dioxopiperidin-3-yl)-1,3-dioxoisoindolin-4-yl)oxy)pentyl)piperazin-1-yl)phenyl)amino)thieno[3,2-d]pyrimidin-7-yl)phenyl)methanesulfonamide], the logFC ([7]; experiment wp045) was −0.3909 and the “logFC BMP2K” value ([7]; experiment wp045) was −0.3909.

With CC(C)S(=O)(=O)c1ccccc1Nc1nc(Nc2ccc(N3CCN(CCOCCNC(=O)CNc4ccc5c(c4)C(=O)N(C4CCC(=O)NC4=O)C5=O)CC3)cc2)ncc1Cl (centres unmarked) [SK.3.93] the logFC ([7]; experiment wp016) was −0.4575 and the “logFC BMP2K” value ([7]; experiment wp016) was −0.4575.

In the case of Cc1ccc(NC(=O)c2cccc(C(F)(F)F)c2)cc1N1Cc2cnc(Nc3ccc(N4CCN(CCCCC(=O)N[C@H](C(=O)N5C[C@H](O)C[C@H]5C(=O)N[C@@H](C)c5ccc(-c6scnc6C)cc5)C(C)(C)C)CC4)nc3)nc2N(C)C1=O [DB1113], the logFC ([3]; NLK (Q9UBE8), experiment wp168, direction down) is reported as −0.8556, the logFC ([3]; NLK Q9UBE8, experiment wp168) is reported as −0.8556 and the logFC [2, 8] is reported as −0.8736. The “logFC CDK11B” value [2, 8] was −0.8736.

With O=C1CCC(N2C(=O)c3cccc(NCCCCCCCCN4CCC(NC(=O)c5[nH]ncc5NC(=O)c5c(Cl)cccc5Cl)CC4)c3C2=O)C(=O)N1 (centres unmarked) [MFH.5.126.1] the logFC ([5]; experiment wp076) was −0.7531 and the “logFC GSK3A” value ([5]; experiment wp076) was −0.7531.

In the case of Cc1cnc(Nc2ccc(N3CCN(CCOCCOCCNC(=O)COc4cccc5c4C(=O)N(C4CCC(=O)NC4=O)C5=O)CC3)cc2)nc1Nc1cccc(S(=O)(=O)NC(C)(C)C)c1 (centres unmarked) [JWG.118], the logFC ([7]; experiment wp071) is reported as −0.3528 and the “logFC BMP2K” value ([7]; experiment wp071) is reported as −0.3528.

CC(C)S(=O)(=O)c1ccccc1Nc1nc(Nc2ccc(N3CCN(CCOCCOCCNC(=O)CNc4cccc5c4C(=O)N(C4CCC(=O)NC4=O)C5=O)CC3)cc2)ncc1Cl (centres unmarked) [TL12.186] was tested, and the logFC [3, 16] was −0.5154 and the logFC ([3]; NLK Q9UBE8, experiment wp137) was −0.5154.
